ChEMBL document CHEMBL1806498, “Novel imidazo[1,2-a]pyridine based inhibitors of the IGF-1 receptor tyrosine kinase: optimization of the aniline” (Bioorg Med Chem Lett, 2011)

Legend:
[1] = Dissociation constant, pKa of the compound at pH 7.4 by UV spectrophotometric titration; format: physicochemical
physchem [2] = conditions: octanol/water
physchem [3] = conditions: buffer, pH 7.4
[4] = Aqueous solubility of the compound in phosphate buffer at pH 7.4; format: physicochemical

SMILES | pKa [1] | logP (physchem [2]) | logD (physchem [3]) | solubility [4]
COc1cc(N2CC3CNCC(C2)O3)ccc1Nc1ncc(Cl)c(-c2cnc3ccccn23)n1 | 8.7 | 3.6 | 2.3 | 
COc1cc(N2CC3CN(CCO)CC(C2)O3)ccc1Nc1ncc(Cl)c(-c2cnc3ccccn23)n1 | 8.4 |  |  | 
COc1cc(N2CC3COCC(C2)N3)ccc1Nc1ncc(Cl)c(-c2cnc3ccccn23)n1 | 6.7 | 3.1 | 3 | 
COc1cc(N2CCN(S(C)(=O)=O)CC2)ccc1Nc1ncc(Cl)c(-c2cnc3ccccn23)n1 |  |  |  | < 0.6 µM
